Test results reported in patent US12404295B2, “(Hetero)aryl-methyl-thio-beta-D-galactopyranoside derivatives” (Idorsia Pharmaceuticals Ltd, priority 2019, dated 2025).
Like-named read-outs stand apart in the source and are kept apart here.

Legend:
human Gal-1 (hGal-1) = human Gal-1 (hGal-1) (Homo sapiens (Human), UniProt P09382); experiment: competitive binding assay: biotinylated hGal-1 binding to microplate-adsorbed asialofetuin (ASF); settings: Table 15; read-out: IC50 (Galectin-1 inhibition)
Method: Inhibition data of the epimers R and S of selected Examples are also listed.
(§1) Evaluation of Compound Inhibitory Activity (IC50)
The inhibitory activity of compounds is determined in competitive binding assays. This spectrophotometric assay measures the binding of biotinylated human Gal-3 (hGal-3) or human Gal-1 (hGal-1), respectively, to a microplate-adsorbed glycoprotein, asialofetuin (ASF) (Proc Natl Acad Sci USA. 2013 Mar. 26; 110(13):5052-7.).
Briefly, compounds are serially diluted in DMSO (working dilutions). ASF-coated 384 well plates are supplemented with 22.8 μL/well of biotinylated hGal-3 or hGal-1 in assay buffer (i.e. 300-1000 ng/mL biotinylated hGal-3 or hGal-1) to which 1.2 μL of compound working dilutions are added and mixed.
(§2) Plates are incubated for 3 hours at 4° C., then washed with cold assay buffer (3×50 uL), incubated for 1 hour with 25 μL/well of a streptavidin-peroxidase solution (diluted in assay buffer to 80 ng/mL) at 4° C., followed by further washing steps with assay buffer (3×50 uL). Finally, 25 μL/well of ABTS substrate is added.
(§3) The calculated IC50 values may fluctuate depending on the daily assay performance. Fluctuations of this kind are known to those skilled in the art. IC50 values from several measurements are given as mean values.

human Gal-3 (hGal-3) = human Gal-3 (hGal-3) (Homo sapiens (Human), UniProt P17931); experiment: competitive binding assay: biotinylated hGal-3 binding to microplate-adsorbed asialofetuin (ASF)
Method: If not explicitly mentioned otherwise, the inhibition data refer to the binding of biotinylated human Gal-3 (hGal-3).
as §1
The inhibitory activity of compounds is determined in competitive binding assays.
Briefly, compounds are serially diluted in DMSO (working dilutions).
as §2, §3

[1] = Gal-3 inhibition, binding of biotinylated hGal-3 to ASF, mean values, read-out: IC50

human Gal-3 (hGal-3), sequence (P17931 whole entry): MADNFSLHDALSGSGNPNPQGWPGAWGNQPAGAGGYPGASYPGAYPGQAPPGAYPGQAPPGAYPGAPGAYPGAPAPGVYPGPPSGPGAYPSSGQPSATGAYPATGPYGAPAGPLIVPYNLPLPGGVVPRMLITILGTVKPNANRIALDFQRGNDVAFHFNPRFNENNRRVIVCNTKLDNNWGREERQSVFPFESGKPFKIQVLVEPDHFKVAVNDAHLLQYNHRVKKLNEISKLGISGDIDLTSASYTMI
human Gal-1 (hGal-1), sequence (P09382 whole entry): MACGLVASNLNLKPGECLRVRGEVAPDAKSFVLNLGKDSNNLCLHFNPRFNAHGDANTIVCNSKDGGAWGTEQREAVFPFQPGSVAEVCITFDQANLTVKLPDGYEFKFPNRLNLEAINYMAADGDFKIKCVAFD

SMILES | IC50 (human Gal-1 (hGal-1)) [nM] | IC50 (human Gal-3 (hGal-3); Table 11, read-out: IC50 (Gal-3 inhibition)) [nM] | IC50 (human Gal-3 (hGal-3); [1]) [nM]
OCC(S[C@@H]1O[C@H](CO)[C@H](O)[C@H](n2cc(-c3cccc(F)c3)nn2)[C@H]1O)c1ccccc1Br (stereo partly drawn) [Example 1.30.101., (2S,3R,4S,5R,6R)-2-((1-(2-Bromophenyl)-2-hydroxyethyl)thio)-4-(4-(3-fluorophenyl)-1H-1,2,3-triazol-1-yl)-6-(hydroxymethyl)tetrahydro-2H-pyran-3,5-diol] | 5770 |  | 1700
COCC(S[C@@H]1O[C@H](CO)[C@H](O)[C@H](n2cc(-c3cc(F)c(F)c(F)c3)nn2)[C@H]1O)c1ccccc1 (stereo partly drawn) [Example 2.30.100.OMe, (2R,3R,4S,5R,6S)-2-(Hydroxymethyl)-6-((2-methoxy-1-phenylethyl)thio)-4-(4-(3,4,5-trifluorophenyl)-1H-1,2,3-triazol-1-yl)tetrahydro-2H-pyran-3,5-diol, reference compound] | 56300 |  | 2900
CC(C)c1ccccc1C(CO)S[C@@H]1O[C@H](CO)[C@H](O)[C@H](n2cc(-c3cc(F)c(F)c(F)c3)nn2)[C@H]1O (stereo partly drawn) [Example 2.30.105., (2S,3R,4S,5R,6R)-2-((2-Hydroxy-1-(2-isopropylphenyl)ethyl)thio)-6-(hydroxymethyl)-4-(4-(3,4,5-trifluorophenyl)-1H-1,2,3-triazol-1-yl)tetrahydro-2H-pyran-3,5-diol] | 1730 |  | 400
CC(C)(O)C(S[C@@H]1O[C@H](CO)[C@H](O)[C@H](n2cc(-c3cc(F)c(F)c(F)c3)nn2)[C@H]1O)c1ccccc1 (stereo partly drawn) [Example 2.31.100., (2S,3R,4S,5R,6R)-2-((2-Hydroxy-2-methyl-1-phenylpropyl)thio)-6-(hydroxymethyl)-4-(4-(3,4,5-trifluorophenyl)-1H-1,2,3-triazol-1-yl)tetrahydro-2H-pyran-3,5-diol] | 3710 |  | 1900
Cc1ccccc1C(S[C@@H]1O[C@H](CO)[C@H](O)[C@H](n2cc(-c3cc(F)c(F)c(F)c3)nn2)[C@H]1O)C(C)(C)O (stereo partly drawn) [Example 2.31.102., (2S,3R,4S,5R,6R)-2-((2-Hydroxy-2-methyl-1-(o-tolyl)propyl)thio)-6-(hydroxymethyl)-4-(4-(3,4,5-trifluorophenyl)-1H-1,2,3-triazol-1-yl)tetrahydro-2H-pyran-3,5-diol] | 2140 |  | 170
Cc1ccccc1[C@@H](S[C@@H]1O[C@H](CO)[C@H](O)[C@H](n2cc(-c3cc(F)c(F)c(F)c3)nn2)[C@H]1O)C(C)(C)O [Example 2.31.102R., (2S,3R,4S,5R,6R)-2-(((R)-2-Hydroxy-2-methyl-1-(o-tolyl)propyl)thio)-6-(hydroxymethyl)-4-(4-(3,4,5-trifluorophenyl)-1H-1,2,3-triazol-1-yl)tetrahydro-2H-pyran-3,5-diol] | 1420 |  | 120
Cc1ccccc1[C@H](S[C@@H]1O[C@H](CO)[C@H](O)[C@H](n2cc(-c3cc(F)c(F)c(F)c3)nn2)[C@H]1O)C(C)(C)O [Example 2.31.102S., (2S,3R,4S,5R,6R)-2-(((S)-2-Hydroxy-2-methyl-1-(o-tolyl)propyl)thio)-6-(hydroxymethyl)-4-(4-(3,4,5-trifluorophenyl)-1H-1,2,3-triazol-1-yl)tetrahydro-2H-pyran-3,5-diol] | 6980 |  | 4430
CCc1ccccc1C(S[C@@H]1O[C@H](CO)[C@H](O)[C@H](n2cc(-c3cc(F)c(F)c(F)c3)nn2)[C@H]1O)C(C)(C)O (stereo partly drawn) [Example 2.31.103., (2S,3R,4S,5R,6R)-2-((1-(2-Ethylphenyl)-2-hydroxy-2-methylpropyl)thio)-6-(hydroxymethyl)-4-(4-(3,4,5-trifluorophenyl)-1H-1,2,3-triazol-1-yl)tetrahydro-2H-pyran-3,5-diol] | 1230 |  | 300
CCCc1ccccc1C(S[C@@H]1O[C@H](CO)[C@H](O)[C@H](n2cc(-c3cc(F)c(F)c(F)c3)nn2)[C@H]1O)C(C)(C)O (stereo partly drawn) [Example 2.31.104., (2S,3R,4S,5R,6R)-2-((2-Hydroxy-2-methyl-1-(2-propylphenyl)propyl)thio)-6-(hydroxymethyl)-4-(4-(3,4,5-trifluorophenyl)-1H-1,2,3-triazol-1-yl)tetrahydro-2H-pyran-3,5-diol] | 600 |  | 170
CC(C)c1ccccc1C(S[C@@H]1O[C@H](CO)[C@H](O)[C@H](n2cc(-c3cc(F)c(F)c(F)c3)nn2)[C@H]1O)C(C)(C)O (stereo partly drawn) [Example 2.31.105., (2S,3R,4S,5R,6R)-2-((2-Hydroxy-1-(2-isopropylphenyl)-2-methylpropyl)thio)-6-(hydroxymethyl)-4-(4-(3,4,5-trifluorophenyl)-1H-1,2,3-triazol-1-yl)tetrahydro-2H-pyran-3,5-diol] | 300 |  | 180
CC(C)c1ccccc1[C@@H](S[C@@H]1O[C@H](CO)[C@H](O)[C@H](n2cc(-c3cc(F)c(F)c(F)c3)nn2)[C@H]1O)C(C)(C)O [Example 2.31.105R., (2S,3R,4S,5R,6R)-2-(((R)-2-Hydroxy-1-(2-isopropylphenyl)-2-methylpropyl)thio)-6-(hydroxymethyl)-4-(4-(3,4,5-trifluorophenyl)-1H-1,2,3-triazol-1-yl)tetrahydro-2H-pyran-3,5-diol] | 160 |  | 60
CC(C)c1ccccc1[C@H](S[C@@H]1O[C@H](CO)[C@H](O)[C@H](n2cc(-c3cc(F)c(F)c(F)c3)nn2)[C@H]1O)C(C)(C)O [Example 2.31.105S., (2S,3R,4S,5R,6R)-2-(((S)-2-Hydroxy-1-(2-isopropylphenyl)-2-methylpropyl)thio)-6-(hydroxymethyl)-4-(4-(3,4,5-trifluorophenyl)-1H-1,2,3-triazol-1-yl)tetrahydro-2H-pyran-3,5-diol] | 65100 |  | 8300
CC(C)(O)C(S[C@@H]1O[C@H](CO)[C@H](O)[C@H](n2cc(-c3cc(F)c(F)c(F)c3)nn2)[C@H]1O)c1ccccc1C1CC1 (stereo partly drawn) [Example 2.31.106., (2S,3R,4S,5R,6R)-2-((1-(2-Cyclopropylphenyl)-2-hydroxy-2-methylpropyl)thio)-6-(hydroxymethyl)-4-(4-(3,4,5-trifluorophenyl)-1H-1,2,3-triazol-1-yl)tetrahydro-2H-pyran-3,5-diol] | 340 |  | 200

Continued, values first:

IC50 (human Gal-1 (hGal-1)) [nM] | IC50 (human Gal-3 (hGal-3); Table 11, read-out: IC50 (Gal-3 inhibition)) [nM] | IC50 (human Gal-3 (hGal-3); [1]) [nM] | SMILES
860 | 70 |  | CO[C@@H]1[C@@H](n2cc(-c3cc(F)c(F)c(F)c3)nn2)[C@@H](O)[C@@H](CO)O[C@H]1S[C@@H](c1nccc(Cl)c1Cl)C1(O)CCC(F)(F)CC1 (single isomer, unassigned) [Example 2.44.143R.I.]
210 |  | 140 | CC(C)(O)[C@H](S[C@@H]1O[C@H](CO)[C@H](O)[C@H](n2cc(-c3cc(F)c(F)c(F)c3)nn2)[C@H]1O)c1ccccc1C1CC1 [Example 2.31.106R., (2S,3R,4S,5R,6R)-2-(((R)-1-(2-cyclopropylphenyl)-2-hydroxy-2-methylpropyl)thio)-6-(hydroxymethyl)-4-(4-(3,4,5-trifluorophenyl)-1H-1,2,3-triazol-1-yl)tetrahydro-2H-pyran-3,5-diol]
65000 |  | 15900 | CC(C)(O)[C@@H](S[C@@H]1O[C@H](CO)[C@H](O)[C@H](n2cc(-c3cc(F)c(F)c(F)c3)nn2)[C@H]1O)c1ccccc1C1CC1 [Example 2.31.106S., (2S,3R,4S,5R,6R)-2-(((S)-1-(2-cyclopropylphenyl)-2-hydroxy-2-methylpropyl)thio)-6-(hydroxymethyl)-4-(4-(3,4,5-trifluorophenyl)-1H-1,2,3-triazol-1-yl)tetrahydro-2H-pyran-3,5-diol]
240 |  | 260 | CC(C)Cc1ccccc1C(S[C@@H]1O[C@H](CO)[C@H](O)[C@H](n2cc(-c3cc(F)c(F)c(F)c3)nn2)[C@H]1O)C(C)(C)O (stereo partly drawn) [Example 2.31.107., (2S,3R,4S,5R,6R)-2-((2-Hydroxy-1-(2-isobutylphenyl)-2-methylpropyl)thio)-6-(hydroxymethyl)-4-(4-(3,4,5-trifluorophenyl)-1H-1,2,3-triazol-1-yl)tetrahydro-2H-pyran-3,5-diol]
300 |  | 200 | CC(C)Cc1ccccc1[C@@H](S[C@@H]1O[C@H](CO)[C@H](O)[C@H](n2cc(-c3cc(F)c(F)c(F)c3)nn2)[C@H]1O)C(C)(C)O [Example 2.31.107R., (2S,3R,4S,5R,6R)-2-(((R)-2-hydroxy-1-(2-isobutylphenyl)-2-methylpropyl)thio)-6-(hydroxymethyl)-4-(4-(3,4,5-trifluorophenyl)-1H-1,2,3-triazol-1-yl)tetrahydro-2H-pyran-3,5-diol]
56600 |  | 950 | CC(C)Cc1ccccc1[C@H](S[C@@H]1O[C@H](CO)[C@H](O)[C@H](n2cc(-c3cc(F)c(F)c(F)c3)nn2)[C@H]1O)C(C)(C)O [Example 2.31.107S., (2S,3R,4S,5R,6R)-2-(((S)-2-hydroxy-1-(2-isobutylphenyl)-2-methylpropyl)thio)-6-(hydroxymethyl)-4-(4-(3,4,5-trifluorophenyl)-1H-1,2,3-triazol-1-yl)tetrahydro-2H-pyran-3,5-diol]
